# From US20180171321A1, “PLATFORM FOR A NON-NATURAL AMINO ACID INCORPORATION INTO PROTEINS” (THE UNIVERSITY OF QUEENSLAND, priority 2015, published 2018)
# Entries after “also recorded” stand apart in the source; their conditions may differ.
# B1: KL: RNA aptamer binding the anticodon loop of tRNA(Ser)GCU; SEQ ID NO:7 (nucleic acid)
# chain: GGTAGTGAGGTAGTTAGCAGATACCTCACTACCAACACACACACAACACACACACAACACACAAGCT
# modifications: “kissing loop” coding sequence with linker
# B2: MjY4: MjY tRNA with six mutations described in a later report (nucleic acid)
# DNA: CCGGCGGTAGTTCAGCAGGGCAGAACGGCGGACTCTAAATCCGCATGGCAGGGGTTCAAATCCCCTCCGCCGGACCA
# modifications: RNA, all phosphodiester, T or U not given here
# notes: MjY tRNA with six mutations described in a later report
# Key:
# [1] = tested on: amber codon (UAG) in GFP templates; experiment: Amber codon suppression in E. coli cell-free translation system (GFP fluorescence); format: biochemical
# Text: FIG. 22. Comparative analysis of amber codon suppression efficiencies in E. coli cell-free translation system with different nnAA/o-tRNA/aaRS combinations. A: The structure of nnAAs used here. B-D: Suppression Amber suppression of A_151X template. The suppression efficiency is defined as a ratio compared to the fluorescence of percentage of wild type eGFP fluorescence wild type eGFP without stop codon inside its ORF. B: Incorporation of four nnAAs by three PylRS variants. The final concentrations of PylTcua, PylRS variants and nnAAs were 20 μM, 20 μM and 1 mM, respectively. C: AzF incorporation by four MjY tRNA variants. MjY1, MjY2, MjY3 and MjY4 are corresponding to the tRNAs pAzPhe1, pAzPhe2, pAzPhe3 and tRNAopt CUA in original publication^35,37. The final concentrations of MjYtRNA variants, AzFRS and AzF are 10 μM, 10 μM and 1 mM, respectively. D: Effect of o-tRNA and o-aaRS concentrations on amber codon suppression efficiency of MjY2/AzFRS/AzF and PylT/PylRSAF/PrK. E: The effect of codon contexts on nnAA incorporation efficiency in two orthogonal systems. The concentration of MjY2 and AzFRS were 10 μM for both while PylT and PylRS were used at 20 and 30 μM, respectively. Four templates, named A_1X, A_151X, B_1X and B_151X, were used in the analysis (sequences are shown in SI). A and B denote the template backbones with different codon biases where codon vocabulary in A is optimized for eGFP while in B it is simplified mostly utilizing the unique codon to decode each amino acid type. The numeric indicates the position of amber codon in ORF sequence. The relative activity in individual reactions is given as a percent of fluorescent intensity provided while obtained when using EctRNATyr(cua) as a suppressor.
# (§1) The tRNA-depleted lysate is prepared as described by ethanolamine-sepharose affinity chromatography^24. DNA templates with two GFP ORFs: one of optimized codon composition for eGFP (Template A) and the other of simplified codon composition for sGFP (Template B), were used. Mutations to amber or AGG-codon were introduced either by synthesizing the whole gene fragments as gBlocks by IDT to change all the 6 Arg codons to AGG simultaneously or using PCR with the proper primers to introduce mutations with less than 3 nucleotides at the same position. The obtained fragments were cloned into the pLTE or pOPINE-based plasmids following the standard Gibson assembly cloning procedure (NEB). The correct plasmids with desired mutations were purified by Midiprep Kit (Qiagen) to ensure good quality for cell free protein translation. The sequence information of all the open reading frames used here is provided in SI.
# The cell-free translation reactions for GFP production were performed following the standard protocol^60 with the optimized Mg^2+ at 10 mM concentration. 0.35 volume of depleted lysate, same as that for the standard S30 lysate, was used in the reaction. […] GFP production was monitored on a fluorescence plate reader (Synergy) at 30° C. for 3-5 h at 485 nm excitation and 528 nm emission wavelengths.
# We tested the recombinant forms of PylRS variants for their ability to support in vitro synthesis of eGFP synthesis from the template containing amber-codon at 151 position (A_151X, SI) in the presence of an evolved o-tRNA harboring U25C mutation in its anticodon stem (PylT)^14 and nnAA-substrates BCN, TCO or TCO*. Another nnAA PrK (FIG. 22A) for also used for azide-coupling known to be accommodated and charged to tRNA by wt MbPylRS30 and […], MmPylRS5, was also tested. […] Neither of these large aliphatic alkynes or alkenes could be incorporated by either of three PylRS mutants with efficiency above 5%. […] The latter confirms the promiscuity of engineered PylRS variant to various substrates reported in a comprehensive study^35
# AGG codon in GFP ORFs = experiment: AGG reassignment to AzF in cell-free system depleted of tRNA species decoding AGG; format: biochemical, E. coli; conditions: all four templates
# Procedure: FIG. 23. AGG reassignment to AzF in the context of four GFP ORFs. The GFP protein was expressed in cell-free system depleted of tRNA species decoding AGG codon with and without addition of MjY suppression system (MjY2/AzFRS). The final concentrations for MjY2, AzFRS, AzF are were 10 μM, 10 μM and 1 mM, respectively. The anticodon in MjY2 was changed to CCU in order to reassign AGG codon to AzF.
# as §1, with “The obtained fragments were cloned into the pLTE or pOPINE-based plasmids following the standard Gibson assembly cloning procedure (NEB). The correct plasmids with desired mutations were purified by Midiprep Kit (Qiagen) to ensure good quality for cell free protein translation.” left out
# The cell-free translation reactions for GFP production were performed following the standard protocol^60 with the optimized Mg^2+ at 10 mM concentration. […] GFP production was monitored on a fluorescence plate reader (Synergy) at 30° C. for 3-5 h at 485 nm excitation and 528 nm emission wavelengths. […]
# [2] = tested on: amber codon in A_151X template; experiment: Amber suppression by flexizyme-precharged nnAA-tRNA, A_151X template; format: biochemical, E. coli; conditions: five nnAAs; precharged tRNA 10, 20 or 30 uM
# Text: FIG. 29. The incorporation efficiency of 5 nnAAs precharged by flexizyme with their respective active group. A: The structure of five activated acid substrates for tRNA acylation by Flexizyme, including L-Propargylglycine 4-chlorobenzyl thioester (Pra-CBT), L-Azidolysine 4-chlorobenzyl thioester (Lys(N3)-CBT), L-Azidohomoalanine 4-chlorobenzyl thioester (Aha-CBT), NE-biotinyl-L-lysine 3,5-dinitrobenzyl ester (Lys(biotin)-DBN) and L-Azidophenylalanine-cyanomethyl ester (AzF-CME). The nnAAs are shown in black while their respective active groups in red. B: The amber suppression efficiency of 5 nnAAs precharged tRNA tested by using A_151X template in the cell free translation system. The precharged tRNA was used to prime the translational reactions at 10, 20 or 30 uM of final tRNA concentration. The flexizyme reaction time and the final concentration of precharged nnAA-tRNAs were indicated.
# C-terminal Cys were added into sequence of the affinity clamp protein (pdz-fibronectin Fusion Protein, PDB: 3CH8_A). The purified protein with C-terminal Cys was immobilized on Iodoacetyl Gel (UltraLink®) using manufacture's protocol. tRNA charging by flexizyme for amber suppression: The acylation reaction were performed as described before^62. 1 volume of 250 μM o-tRNA was mixed with the same volume of 50 μM Fx ([…]) and 3 volume of water. […]
# GCU Ser isoacceptor = experiment: Kissing loop binding to tRNA isoacceptor; set-up: species or system E. coli; conditions: read-out: affinity
# Procedure: Kissing loop (KL) binds GCU Ser isoacceptor with high affinity (5-50 nM) through the formation of quasi-continuous double helix stabilized by the common stacking column between the planes of the nucleotide pairs (FIG. 16A). E. coli S30 lysate can be to a large extent depleted of total tRNA by the chromatography on ethanolamine sepharose. After the depletion lysate retains ˜60% of translational efficiency of its parental one if supplemented by commercially available total tRNA fraction (FIG. 16 B).
# [3] = A_151X template, % of wild type eGFP fluorescence, PylTcua 20 μM, PylRS variant 20 μM, nnAA 1 mM
molecule,measurement,setting,value
Bicyclo [6.1.0] nonyne-Lysine [BCN],UAG suppression efficiency with BCNRS,[1]; [3],3%
same,efficiency of UAG suppression by either of three PylRS mutants,"[1]; A_151X template, BCNRS, TCORS, PylRSAF",very low
"[N-]=[N+]=Nc1ccc(C[C@H](N)C(=O)O)cc1 [AzF, p-azidophenylalanine]",protein containing AzF (LC-MS/MS),"[1]; GFP151AzF sample, TAG codon",more than 80%
same,GFP protein modified with AzF,AGG codon in GFP ORFs,more than 80%
same,amber suppression efficiency among flexizyme-charged nnAAs,[2],best amber-codon incorporation efficiency; also recorded: highest translational activity
"C#CCN[C@@H](CCCCN)C(=O)O [PrK, N-Propargyl-Lysine]",incorporation with TCORS,[1]; A_151X template,essentially failed to incorporate
same,UAG suppression efficiency with BCNRS,[1]; [3],essentially failed to incorporate
same,UAG suppression efficiency with PylRSAF,[1]; [3],13%
B1,Kd,GCU Ser isoacceptor,5 to 50 nM
B2,efficiency of MjY2 relative to the listed tRNA in AzF incorporation,"[1]; A_151X, 10 μM tRNA, 10 μM AzFRS, 1 mM AzF",slightly better
